Measured values from patent US20230071672A1, “PRESERVING FLUOROPHORE FUNCTION” (Lions VisionGift, priority 2021, published 2023).

Key:
corneas = test: Staining of corneas for 15 minutes and fluorescence microscopy imaging after storage of the stain; format: cell-based
Protocol: Calcein AM (2.5 μg/mL) was prepared with 1.7% sodium hyaluronic acid in a balanced salt solution. Three corneas were stained for 15 minutes and imaged under the same conditions. The cornea shown in FIG. 1A was stained with the mixture immediately after preparation. The cornea shown in FIG. 1B was stained with the mixture after the mixture had been stored frozen for 5 days. The cornea shown in FIG. 1C was stained with the mixture after the mixture had been stored frozen for 3 months.
Calcein-AM (2.5 μg/mL) was prepared according to manufacturer's recommendations. All corneas were stained for 15 minutes and imaged under the same conditions.

[1] = stored over night at 4° C., or frozen and thawed; cited from earlier work
[2] = in water and alcohol; cited from earlier work

fluorescence signal after storage (corneas; three months' storage under 4° C. refrigeration, FIG. 2E): completely lost
Substance: calcein AM
fluorescence signal with storage time (corneas; stored under 4° C. refrigeration, protected from light, overnight, five days, one month, three months, FIGS. 2B-2E): loses intensity with the storage time length
functionality after storage [1]: lose functionality
solubility [2]: only slightly soluble
